In patent US12012392B2, “Sulfonamide carboxamide compounds” (Inflazome Limited, priority 2017, dated 2024) one finds IC50 data, which are given here for 13 molecules.

The IC50 is the point on the concentration scale where inhibition reaches its midpoint.

Molecules are shown by their SMILES.

Assay [1] concerns the target T1, NLRP3 (Homo sapiens, UniProt Q96P20). Kind of assay: THP-1 cells pyroptosis assay. In kind it is cell-based. The arrangement: Seed THP-1 cells (25,000 cells/well) containing 1.0 μg/ml LPS; host or cells: THP-1 cells, LPS-primed, nigericin-stimulated. To be noted: LPS 1 μg/ml, nigericin 5 μM, resazurin read-out. Here is the method: THP-1 cells (ATCC #TIB-202) were grown in RPMI containing L-glutamine (Gibco #11835) supplemented with 1 mM sodium pyruvate (Sigma #S8636) and penicillin (100 units/ml)/streptomycin (0.1 mg/ml) (Sigma #P4333) in 10% Fetal Bovine Serum (FBS) (Sigma #F0804). The cells were routinely passaged and grown to confluency (˜10^6 cells/ml). On the day of the experiment, THP-1 cells were harvested and resuspended into RPMI medium (without FBS). The cells were then counted and viability (>90%) checked by Trypan blue (Sigma #T8154). Appropriate dilutions were made to give a concentration of 625,000 cells/ml. To this diluted cell solution was added LPS (Sigma #L4524) to give a 1 μg/ml Final Assay Concentration (FAC). 40 μl of the final preparation was aliquoted into each well of a 96-well plate. The plate thus prepared was used for compound screening.
The following method step-by-step assay was followed for compound screening. • 1. Seed THP-1 cells (25,000 cells/well) containing 1.0 μg/ml LPS in 40 μl of RPMI medium (without FBS) in 96-well, black walled, clear bottom cell culture plates coated with poly-D-lysine (VWR #734-0317) • 2. Add 5 μl compound (8 points half-log dilution, with 10 μM top dose) or vehicle (DMSO 0.1% FAC) to the appropriate wells • 3. Incubate for 3 hrs at 37° C. and 5% CO2 • 4. Add 5 μl nigericin (Sigma #N7143) (FAC 5 μM) to all wells • 5. Incubate for 1 hr at 37° C. and 5% CO2 • 6. At the end of the incubation period, spin plates at 300×g for 3 mins and remove supernatant • 7. Then add 50 μl of resazurin (Sigma #R7017) (FAC 100 μM resazurin in RPMI medium without FBS) and incubate plates for a further 1-2 hrs at 37° C. and 5% CO2 • 8. Plates were read in an Envision reader at Ex 560 nm and Em 590 nm • 9. IC50 data is fitted to a non-linear regression equation (log inhibitor vs response-variable slope 4-parameters) 96-Well Plate Map
In general terms: Alamar Blue is a resazurin reagent that responds to reducing activity.

Assay [2] deals with T1, NLRP3. Kind of assay: Human whole blood IL1β release assay. In kind it is cell-based. On the set-up: Plate out 80 μl of whole blood containing 1 μg/ml of LPS; from tissue; host or cells: human whole blood from healthy donors, LPS-primed, nigericin-stimulated. To be noted: LPS 1 μg/ml, nigericin 10 μM, IL-1β AlphaLisa, read-out: HWB IC50. Here is the method:
For systemic delivery, the ability to inhibit NLRP3 when the compounds are present within the bloodstream is of great importance. For this reason, the NLRP3 inhibitory activity of a number of compounds in human whole blood was investigated in accordance with the following protocol.
Human whole blood in Li-heparin tubes was obtained from healthy donors from a volunteer donor panel. • 1. Plate out 80 μl of whole blood containing 1 μg/ml of LPS in 96-well, clear bottom cell culture plate (Corning #3585) • 2. Add […] compound (8 points half-log dilution with 10 μM top dose) or vehicle (DMSO 0.1% FAC) to the appropriate wells • 3. Incubate for 3 hrs at 37° C., 5% CO2 • 4. Add 10 μl Nigericin (Sigma #N7143) (10 μM FAC) to all wells • 5. Incubate for 1 hr at 37° C., 5 CO2 • 6. At the end of the incubation period, spin plates at 300×g for 5 mins to pellet cells and remove 20 μl of supernatant and add to 96-well v-bottom plates for […] analysis (note: these plates containing the supernatants can be stored at −80° C. to be analysed at a later date) • 7. IL-1β was measured according to the manufacturer protocol (Perkin Elmer-AlphaLisa IL-1 Kit AL220F-5000) • 8. IC50 data is fitted to anon-linear regression equation (log inhibitor vs response-variable slope 4-parameters)
For orientation: Alpha assays give light when donor and acceptor beads are brought close together.

T1 sequence (Q96P20 whole entry): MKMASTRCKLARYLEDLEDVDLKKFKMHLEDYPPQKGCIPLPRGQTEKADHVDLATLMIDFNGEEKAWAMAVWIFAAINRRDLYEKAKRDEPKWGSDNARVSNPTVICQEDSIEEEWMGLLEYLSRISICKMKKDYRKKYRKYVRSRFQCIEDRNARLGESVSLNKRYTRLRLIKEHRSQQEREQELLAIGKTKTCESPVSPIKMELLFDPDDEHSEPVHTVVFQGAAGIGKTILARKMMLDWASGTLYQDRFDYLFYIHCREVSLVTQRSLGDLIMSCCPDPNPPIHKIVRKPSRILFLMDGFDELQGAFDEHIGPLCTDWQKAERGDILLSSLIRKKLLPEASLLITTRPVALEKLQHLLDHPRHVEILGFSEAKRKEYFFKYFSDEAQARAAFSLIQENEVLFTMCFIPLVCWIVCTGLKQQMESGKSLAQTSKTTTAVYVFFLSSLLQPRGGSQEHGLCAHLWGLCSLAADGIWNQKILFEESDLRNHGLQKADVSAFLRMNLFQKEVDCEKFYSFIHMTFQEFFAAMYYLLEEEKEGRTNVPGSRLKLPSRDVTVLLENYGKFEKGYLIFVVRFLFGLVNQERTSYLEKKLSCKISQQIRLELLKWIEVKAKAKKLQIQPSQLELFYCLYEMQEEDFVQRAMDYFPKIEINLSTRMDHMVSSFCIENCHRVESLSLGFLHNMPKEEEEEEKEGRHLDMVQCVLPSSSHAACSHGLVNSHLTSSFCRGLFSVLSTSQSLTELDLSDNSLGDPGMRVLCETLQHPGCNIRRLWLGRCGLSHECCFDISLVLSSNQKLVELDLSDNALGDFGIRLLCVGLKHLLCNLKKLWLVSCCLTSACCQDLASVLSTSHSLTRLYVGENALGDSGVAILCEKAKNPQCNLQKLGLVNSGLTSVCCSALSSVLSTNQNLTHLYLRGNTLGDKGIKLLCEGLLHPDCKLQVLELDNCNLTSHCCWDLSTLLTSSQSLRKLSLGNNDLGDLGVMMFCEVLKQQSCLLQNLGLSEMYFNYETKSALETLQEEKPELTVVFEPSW

In the case of `CC(C)(CO)n1ccc(S(=O)(=O)NC(=O)Nc2c3c(cc4c2CCC4)CCC3)n1` [Example 20, N-((1,2,3,5,6,7-Hexahydro-s-indacen-4-yl)carbamoyl)-1-(1-hydroxy-2-methylpropan-2-yl)-1H-pyrazole-3-sulfonamide], the IC50 on NLRP3 [1] lay in the range of 40 to 160 nM; at NLRP3 [2], 800 to 1600 nM.

Turning to `CCOC1(c2cc(S(=O)(=O)NC(=O)Nc3c4c(cc5c3CCC5)CCC4)nn2C)COC1` [Example 41, 5-(3-Ethoxyoxetan-3-yl)-N-((1,2,3,5,6,7-hexahydro-s-indacen-4-yl)carbamoyl)-1-methyl-1H-pyrazole-3-sulfonamide], the IC50 on NLRP3 [1] lay in the range of 40 to 160 nM; on NLRP3 [2], 400 to 800 nM.

For `Cn1nc(S(=O)(=O)NC(=O)Nc2c3c(cc4c2CCC4)CCC3)cc1C(=O)N(CCO)CCO` [Example 61, 3-(N-((1,2,3,5,6,7-Hexahydro-s-indacen-4-yl)carbamoyl)sulfamoyl)-N,N-bis(2-hydroxyethyl)-1-methyl-1H-pyrazole-5-carboxamide], the IC50 on NLRP3 [1] was 160 to 640 nM; on NLRP3 [2] it was under 400 nM.

In the case of `O=C(Nc1c2c(cc3c1CCC3)CCC2)NS(=O)(=O)c1ccn(CC(O)C(F)(F)F)n1` (centres unmarked) [Example 30, N-((1,2,3,5,6,7-Hexahydro-s-indacen-4-yl)carbamoyl)-1-(3,3,3-trifluoro-2-hydroxypropyl)-1H-pyrazole-3-sulfonamide], the results for the IC50 on NLRP3 [1] and on NLRP3 [2] were 40 to 160 nM and 800 to 1600 nM, respectively.

For `CC(C)(O)Cn1ccc(S(=O)(=O)NC(=O)Nc2c(-c3ccnc(C#N)c3)ccc3c2CCC3)n1` [Example 93], the IC50 is under 40 nM at NLRP3 [1] and under 400 nM at NLRP3 [2].

Consider `O=C(Nc1c2c(cc3c1CCC3)CCC2)NS(=O)(=O)c1ccn(CCCO)n1` [Example 7, N-((1,2,3,5,6,7-Hexahydro-s-indacen-4-yl)carbamoyl)-1-(3-hydroxypropyl)-1H-pyrazole-3-sulfonamide], for which the values for the IC50 at NLRP3 [1] and on NLRP3 [2] were 40 to 160 nM and 400 to 800 nM, respectively.

Regarding `O=C(Nc1c2c(cc3c1CCC3)CCC2)NS(=O)(=O)c1ccn(C2CC(O)C2)n1` (centres unmarked) [Example 34, N-((1,2,3,5,6,7-Hexahydro-s-indacen-4-yl)carbamoyl)-1-(3-hydroxycyclobutyl)-1H-pyrazole-3-sulfonamide], the IC50 on NLRP3 [1] was 160 to 640 nM; on NLRP3 [2] it was 800 to 1600 nM.

Take `COC1(c2cc(S(=O)(=O)NC(=O)Nc3c(-c4cccnc4)cc(F)c4c3CCC4)nn2C)COC1` [Example 35, N-((7-Fluoro-5-(pyridin-3-yl)-2,3-dihydro-1H-inden-4-yl)carbamoyl)-5-(3-methoxyoxetan-3-yl)-1-methyl-1H-pyrazole-3-sulfonamide]: the results for the IC50 on NLRP3 [1] and on NLRP3 [2] were 160 to 640 nM and 800 to 1600 nM, respectively.

On to `O=C(Nc1c2c(cc3c1CCC3)CCC2)NS(=O)(=O)c1ccn(C2COC2)n1` [Example 12, N-((1,2,3,5,6,7-Hexahydro-s-indacen-4-yl)carbamoyl)-1-(oxetan-3-yl)-1H-pyrazole-3-sulfonamide], for which the IC50 on NLRP3 [1] fell in the range of 160 to 640 nM; at NLRP3 [2], 800 to 1600 nM.

For the molecule `COc1cc(-c2ccc3c(c2NC(=O)NS(=O)(=O)c2cc(C4(OC)COC4)n(C)n2)CCC3)ccn1` [Example 98], the IC50 on NLRP3 [1] was under 40 nM; at NLRP3 [2], under 400 nM.

With `O=C(Nc1c2c(cc3c1CCC3)CCC2)NS(=O)(=O)c1ccn(CC2CCCO2)n1` (single isomer, unassigned) [Example 5], the results for the IC50 at NLRP3 [1] and at NLRP3 [2] were 40 to 160 nM and 800 to 1600 nM, respectively.

As for `C[C@@H](O)Cn1ncc(S(=O)(=O)NC(=O)Nc2c3c(cc4c2CCC4)CCC3)n1` [Example 33, (R)—N-((1,2,3,5,6,7-Hexahydro-s-indacen-4-yl)carbamoyl)-2-(2-hydroxypropyl)-2H-1,2,3-triazole-4-sulfonamide], the IC50 was 160 to 640 nM on NLRP3 [1] and 800 to 1600 nM at NLRP3 [2].

Take `CN(CCCO)C(=O)c1cc(S(=O)(=O)NC(=O)Nc2c3c(cc4c2CCC4)CCC3)nn1C` [Example 64, 3-(N-((1,2,3,5,6,7-Hexahydro-s-indacen-4-yl)carbamoyl)sulfamoyl)-N-(3-hydroxypropyl)-N,1-dimethyl-1H-pyrazole-5-carboxamide]: the IC50 at NLRP3 [1] was in the range of 160 to 640 nM; at NLRP3 [2], 1600 to 3200 nM.
